# Laboratory results as given in patent US7745619B2, “Vinca derivatives” (priority 2003, dated 2010).
# Legend:
# Assay type in all cases: cell-based
# [1] = tested on: BT-549; assay: NCI 60-cell line growth inhibition assay: BT-549; conditions: Homo sapiens
# [2] = tested on: MDA-MB-231/ATCC; assay: NCI 60-cell line growth inhibition assay: MDA-MB-231/ATCC; conditions: Homo sapiens, MDA-MB-231
# [3] = tested on: T-47D; assay: NCI 60-cell line growth inhibition assay: T-47D; conditions: Homo sapiens, T47D, Breast
# Excerpt: (§1) The following data in Table 4 summarize the growth inhibition properties of several compounds of the present invention against 60-human transformed cell lines.
# [4] = tested on: SF-295; assay: NCI 60-cell line growth inhibition assay: SF-295; conditions: Homo sapiens
# [5] = tested on: SNB-75; assay: NCI 60-cell line growth inhibition assay: SNB-75; conditions: Homo sapiens
# [6] = tested on: U251; assay: NCI 60-cell line growth inhibition assay: U251; conditions: Homo sapiens, U-251
# [7] = tested on: HCT-116; assay: NCI 60-cell line growth inhibition assay: HCT-116; conditions: Homo sapiens
# [8] = tested on: HCT-15; assay: NCI 60-cell line growth inhibition assay: HCT-15; conditions: Homo sapiens
# [9] = tested on: HT29; assay: NCI 60-cell line growth inhibition assay: HT29; conditions: Homo sapiens, HT-29
# [10] = tested on: MALME-3M; assay: NCI 60-cell line growth inhibition assay: MALME-3M; conditions: Homo sapiens, Malme-3M
# [11] = tested on: SK-MEL-2; assay: NCI 60-cell line growth inhibition assay: SK-MEL-2; conditions: Homo sapiens
# [12] = tested on: SK-MEL-28; assay: NCI 60-cell line growth inhibition assay: SK-MEL-28; conditions: Homo sapiens, Melanoma
# Excerpt: as §1
# [13] = tested on: UACC-62; assay: NCI 60-cell line growth inhibition assay: UACC-62; conditions: Homo sapiens
# [14] = tested on: HOP-92; assay: NCI 60-cell line growth inhibition assay: HOP-92; conditions: Homo sapiens
# [15] = tested on: NCI-H23; conditions: Homo sapiens
# [16] = tested on: OVCAR-4; assay: NCI 60-cell line growth inhibition assay: OVCAR-4; conditions: Homo sapiens
# [17] = tested on: OVCAR-5; assay: NCI 60-cell line growth inhibition assay: OVCAR-5; conditions: Homo sapiens
# [18] = tested on: SK-OV-3; assay: NCI 60-cell line growth inhibition assay: SK-OV-3; conditions: Homo sapiens
# [19] = tested on: ACHN; assay: NCI 60-cell line growth inhibition assay: ACHN; conditions: Homo sapiens
# [20] = tested on: RXF 393; assay: NCI 60-cell line growth inhibition assay: RXF 393; conditions: Homo sapiens
# [21] = tested on: UO-31; assay: NCI 60-cell line growth inhibition assay: UO-31; conditions: Homo sapiens
# [22] = tested on: HL-60(TB); assay: cells; conditions: Homo sapiens, Leukemia
# [23] = tested on: K-562; assay: NCI 60-cell line growth inhibition assay: K-562; conditions: Homo sapiens, K562
# [24] = tested on: SR; assay: NCI 60-cell line growth inhibition assay: SR; conditions: Homo sapiens, Leukemia
# Excerpt: as §1
# [25] = tested on: NCI-H226; conditions: Homo sapiens, Non-Small Cell Lung
# Excerpt: as §1
SMILES,GI50 [2],GI50 [3],GI50 [4],GI50 [5],GI50 [6],GI50 [7],GI50 [8],GI50 [9],GI50 [10],GI50 [11],GI50 [12],GI50 [13],GI50 [14],GI50 [15],GI50 [16],GI50 [17],GI50 [18],GI50 [19],GI50 [20],GI50 [22],further results
"CC[C@]1(O)C[C@H]2CN(CCc3c([nH]c4ccc(C#Cc5ccccc5)cc34)[C@@](C(=O)OC)(c3cc4c(cc3OC)N(C)[C@H]3[C@@](O)(C(=O)OC)[C@H](OC(C)=O)[C@]5(CC)C=CCN6CC[C@]43[C@@H]65)C2)C1 [Example 19, 12′-(2-phenylethynyl) vinblastine]",2020 nM,4750 nM,293 nM,530 nM,9970 nM,300 nM,8350 nM,423 nM,254 nM,2290 nM,1270 nM,2040 nM,335 nM,541 nM,1550 nM,1780 nM,1880 nM,22000 nM,619 nM,,GI50 [1]: 1890 nM; GI50 [21]: 2200 nM
"CCCC(=O)/C=C/c1ccc2[nH]c3c(c2c1)CCN1C[C@H](C[C@@](O)(CC)C1)C[C@]3(C(=O)OC)c1cc2c(cc1OC)N(C)[C@H]1[C@@](O)(C(=O)OC)[C@H](OC(C)=O)[C@]3(CC)C=CCN4CC[C@]21[C@@H]43 [Example 29, 12′-(3-oxohex-1-enyl)vinblastine]",< 10 nM,,568 nM,,< 10 nM,< 10 nM,274 nM,< 10 nM,,9770 nM,,< 10 nM,9930 nM,,21.1 nM,,16.9 nM,93.7 nM,268 nM,244 nM,GI50 [23]: < 10 nM; GI50 [24]: 396 nM; GI50 [25]: < 10 nM
"CCC1=C[C@H]2CN(CCc3c([nH]c4ccc(Br)cc34)[C@@](C(=O)OC)(c3cc4c(cc3OC)N(C)[C@H]3[C@@](O)(C(=O)OC)[C@H](OC(C)=O)[C@]5(CC)C=CCN6CC[C@]43[C@@H]65)C2)C1 [Example 97, 12′-bromoanhydro vinblastine]",< 10 nM,19400 nM,< 10 nM,12200 nM,< 10 nM,< 10 nM,< 10 nM,< 10 nM,1420 nM,,3310 nM,< 10 nM,12200 nM,325 nM,,12.4 nM,< 10 nM,64.1 nM,,< 10 nM,GI50 [23]: < 10 nM; GI50 [25]: < 10 nM
